Molecules are shown by their SMILES.

Test [1] addresses T1, human sphingosine-1-phosphate receptor 1 (S1P1) (Homo sapiens, UniProt P21453). Briefly: β-Arrestin2 recruitment assay (PathHunter), S1P1 CHO-K1 cells. The test is classed as cell-based. In short, it runs like this:
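Agonist-driven β-arrestin2 recruitment measured by β-galactosidase complementation after 60 min compound exposure at 37 °C and 1 h detection at room temperature. Cells: stable CHO-K1 line expressing tagged human S1P1 with EA-β-arrestin2, plated the night before. Data expressed relative to fingolimod.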
Target sequence in this assay (P21453 whole entry): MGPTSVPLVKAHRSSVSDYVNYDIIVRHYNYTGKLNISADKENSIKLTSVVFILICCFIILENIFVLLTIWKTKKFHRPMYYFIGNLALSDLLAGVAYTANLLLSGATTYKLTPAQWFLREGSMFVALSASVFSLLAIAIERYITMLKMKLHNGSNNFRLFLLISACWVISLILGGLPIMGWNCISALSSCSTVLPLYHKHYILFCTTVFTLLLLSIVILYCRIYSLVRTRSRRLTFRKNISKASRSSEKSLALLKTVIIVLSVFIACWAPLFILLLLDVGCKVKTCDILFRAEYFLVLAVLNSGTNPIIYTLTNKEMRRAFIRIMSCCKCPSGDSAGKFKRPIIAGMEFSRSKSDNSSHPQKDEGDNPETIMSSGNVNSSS
Target sequence in this assay (P32121 whole entry partner): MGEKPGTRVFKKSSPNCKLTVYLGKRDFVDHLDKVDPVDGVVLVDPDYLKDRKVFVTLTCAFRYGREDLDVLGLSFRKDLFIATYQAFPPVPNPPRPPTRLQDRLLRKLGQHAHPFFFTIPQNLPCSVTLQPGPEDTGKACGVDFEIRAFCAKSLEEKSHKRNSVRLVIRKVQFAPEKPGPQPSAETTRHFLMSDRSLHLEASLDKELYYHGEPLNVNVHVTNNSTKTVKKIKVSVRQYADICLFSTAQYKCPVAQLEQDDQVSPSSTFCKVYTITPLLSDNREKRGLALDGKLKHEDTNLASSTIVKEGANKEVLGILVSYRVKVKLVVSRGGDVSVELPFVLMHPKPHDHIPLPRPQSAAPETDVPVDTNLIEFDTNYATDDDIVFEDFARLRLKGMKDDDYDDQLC

The target of test [2] is T1, human sphingosine-1-phosphate receptor 1 (S1P1). Briefly: Inhibition of cAMP production (HTRF cAMP HiRange), S1P1 CHO-K1 cells. Format: cell-based. Summed up:
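Intracellular cAMP changes read by TR-FRET (HTRF HiRange, 1 h room temperature) after 30 min compound exposure at 37 °C. Cells: overnight-plated CHO-K1 stably expressing tagged human S1P1 with EA-β-arrestin2. Responses normalized to fingolimod.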
Target sequence in this assay (P21453 whole entry): as the sequence (P21453 whole entry) above

The mark [3] stands for this setting: CHO-K1, efficacy normalized to maximum efficacy of fingolimod, read-out: hS1P1 B-arrestin2 SPAN.
Where [4] appears, read: β-arrestin2 recruitment, S1P1, read-out: hS1P1 B-arrestin2 pEC50 (converted).
Setting [5] is: CHO-K1, efficacy normalized to maximum efficacy of fingolimod, read-out: hS1P1 CAMP SPAN.
[6] abbreviates: inhibition of cAMP production, S1P1, read-out: hS1P1 CAMP pEC50 (converted).
The mark [7] stands for this setting: CHO-K1, β-arrestin2 recruitment, efficacy normalized to maximum efficacy of fingolimod, read-out: hS1P1 B-arrestin2 SPAN.
Where [8] appears, read: β-arrestin2 recruitment, potency, read-out: hS1P1 B-arrestin2 pEC50 (converted).
Setting [9] is: CHO-K1, inhibition of cAMP production, efficacy normalized to maximum efficacy of fingolimod, read-out: hS1P1 CAMP SPAN.
The mark [10] stands for this setting: inhibition of cAMP production, potency, read-out: hS1P1 CAMP pEC50 (converted).

`O=C1c2cc(-c3nc(-c4cccnc4)no3)ccc2OC(CO)(CO)C1Br` (stereo not shown) [Compound 479, 3-bromo-2,2-bis(hydroxy-methyl)-6-[3-(pyridin-3-yl)-1,2,4-oxadiazol-5-yl]-3,4-dihydro-2H-1-benzopyran-4-one]: the Emax in test [1] (setting [3]) and in test [2] (setting [5]) was less than 75% in each case. The EC50 was greater than 10 µM in test [1] (setting [4]) and greater than 0.316 µM in test [2] (setting [6]).
As for `FC(F)(F)Oc1cccc(-c2nc(-c3ccc4c(c3)nnn4C3CCCC3)no2)c1` [Compound 10, 3-(1-cyclopentyl-1H-benzo[d][1,2,3]triazol-5-yl)-5-(3-(trifluoro-methoxy)phenyl)-1,2,4-oxadiazole], the values for the EC50 in test [1] and in test [2] were greater than 10 µM and greater than 0.316 µM, respectively. The Emax in test [1] (CHO-K1, read-out: hS1P1 B-arrestin2 SPAN) was less than 75%; in test [2] (CHO-K1, read-out: hS1P1 CAMP SPAN), less than 75%.
As for `Cc1nc2cc(-c3nc(-c4ccc5c(c4)nnn5C(C)C)no3)ccc2[nH]1` [Compound 571, 5-[5-(2-methyl-1H-1,3-benzodiazol-5-yl)-1,2,4-oxadiazol-3-yl]-1-(propan-2-yl)-1H-1,2,3-benzotriazole], the Emax is less than 75% in test [1] (setting [3]) and greater than 75% in test [2] (setting [5]). The EC50 is less than 10 µM in test [1] (setting [4]) and less than 0.316 µM in test [2] (setting [6]).
`CC(C)Oc1ccc(-c2noc(-c3ccc4c(c3)nnn4C(C)C)n2)cc1C(F)(F)F` [Compound 20, 3-(4-isopropoxy-3-(trifluoromethyl)phenyl)-5-(1-isopropyl-1H-benzo[d][1,2,3]triazol-5-yl)-1,2,4-oxadiazole]: the Emax in test [1] (setting [7]) and in test [2] (setting [9]) was greater than 75% in each case. Moreover, the EC50 was less than 10 µM in test [1] (setting [8]) and less than 0.316 µM in test [2] (setting [10]).
As to `COc1cnc(-c2nc(-c3ccc4c(c3)nnn4C(C)C)no2)cn1` [Compound 51, 3-(1-isopropyl-1H-benzo[d][1,2,3]triazol-5-yl)-5-(5-methoxypyrazin-2-yl)-1,2,4-oxadiazole], the Emax in test [1] (setting [7]) and in test [2] (setting [9]) was less than 75% in each case. Moreover, the EC50 in test [1] (setting [8]) is greater than 10 µM; in test [2] (setting [10]) it was greater than 0.316 µM.
Consider `CC(C)Nc1ccc(-c2nnc(-c3cccc4[nH]cnc34)o2)cc1C#N` [Compound 585, 5-[5-(1H-1,3-benzo-diazol-4-yl)-1,3,4-oxadiazol-2-yl]-2-[(propan-2-yl)amino]benzonitrile], for which the Emax in test [1] (setting [3]) and in test [2] (setting [5]) was greater than 75% throughout. In addition, the EC50 was less than 10 µM in test [1] (setting [4]) and less than 0.316 µM in test [2] (setting [6]).
As to `CCC1(CC)CC(=O)c2cc(-c3nc(-c4cncc(OC)c4)no3)ccc2O1` [Compound 311, 2,2-diethyl-6-(3-(5-methoxypyridin-3-yl)-1,2,4-oxadiazol-5-yl)chroman-4-one], the Emax in test [1] (setting [7]) and in test [2] (setting [9]) was greater than 75% each time. Moreover, the EC50 in test [1] (setting [8]) was greater than 10 µM; in test [2] (setting [10]), greater than 0.316 µM.
Take `COc1ccccc1-c1noc(-c2ccc3c(c2)NC(=O)CN3)n1` [Compound 614, 7-[3-(2-methoxyphenyl)-1,2,4-oxadiazol-5-yl]-1,2,3,4-tetrahydro-quinoxalin-2-one]: the Emax in test [1] (setting [3]) was less than 75%; in test [2] (setting [5]) it was greater than 75%. For the same compound, the EC50 in test [1] (setting [4]) is greater than 10 µM; in test [2] (setting [6]), greater than 0.316 µM.
Consider `CCCn1nnc2cc(-c3nc(-c4ccccc4)no3)ccc21` [Compound 160, 5-(3-phenyl-1,2,4-oxadiazol-5-yl)-1-propyl-1H-1,2,3-benzotriazole], for which the Emax in test [1] (setting [7]) and in test [2] (setting [9]) was less than 75% throughout. In addition, the results for the EC50 in test [1] (setting [8]) and in test [2] (setting [10]) were greater than 10 µM and greater than 0.316 µM, respectively.
On to `Cc1ccccc1-c1nc(-c2ccc3c(c2)nnn3C2CCCC2)no1` [Compound 162, 3-(1-cyclopentyl-1H-benzo[d][1,2,3]triazol-5-yl)-5-(o-tolyl)-1,2,4-oxadiazole], for which the Emax in test [1] (setting [7]) and in test [2] (setting [9]) was greater than 75% throughout. In addition, the results for the EC50 in test [1] (setting [8]) and in test [2] (setting [10]) were less than 10 µM and greater than 0.316 µM, respectively.

The record behind these values is patent publication US20230114241A1, “METHODS OF TREATING EPILEPSY USING THE SAME” (Trevena, Inc., priority 2019, published 2023).
